Results published in the supplement of paper PMC12406974.

Key:
Experiment in all cases: maximum observed lethal fraction; higher = more cell death
[1] = system: U2OS PTBP1-KO
[2] = system: U2OS BAX/BAK1 DKO
[3] = system: U2OS BCL2L12-KO
[4] = system: U2OS
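Also: FLICK assay: SYTOX Green fluorescence of dead cells tracked over time after drugging in 96-well plates, with total cell counts taken from Triton X-100 lysed wells.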

CC[C@@]1(O)C(=O)OCc2c1cc1n(c2=O)Cc2cc3ccccc3nc2-1 [Camptothecin]
maximum observed lethal fraction
Conditions	0.01 µM	0.0316 µM	0.1 µM	0.316 µM	1 µM	3.16 µM	10 µM
[1]	0.0712	0.0841	0.0812	0.0849	0.107	0.295	0.328
[2]	0.0607	0.0659	0.0708	0.0816	0.0795	0.0879	0.0915
[3]	0.0758	0.083	0.0852	0.101	0.307	0.664	0.8
[4]	0.0607	0.0661	0.0732	0.0916	0.379	0.625	0.786

CC(=O)N[C@H]1[C@@H](O[C@@H]2O[C@H](CC(O)[C@H]3O[C@@H](n4ccc(=O)[nH]c4=O)[C@H](O)[C@@H]3O)[C@H](O)[C@H](O)[C@H]2NC(=O)/C=C/CC(C)C)O[C@H](CO)[C@@H](N)[C@@H]1O (stereo partly drawn) [Tunicamycin]
maximum observed lethal fraction
Conditions	0.01 µM	0.0316 µM	0.1 µM	0.316 µM	1 µM	3.16 µM	10 µM
[1]	0.0696	0.0731	0.0724	0.0808	0.104	0.345	0.533
[2]	0.0556	0.0546	0.0609	0.0665	0.0788	0.089	0.0844
[3]	0.0673	0.0693	0.0857	0.196	0.58	0.86	0.873
[4]	0.0548	0.0561	0.0662	0.0886	0.347	0.692	0.82

CC(C)[C@]12O[C@H]1[C@@H]1O[C@]13[C@]1(O[C@H]1C[C@H]1C4=C(CC[C@@]13C)C(=O)OC4)[C@@H]2O [Triptolide]
maximum observed lethal fraction
Conditions	0.001 µM	0.00316 µM	0.01 µM	0.0316 µM	0.1 µM	0.316 µM	1 µM
[1]	0.0668	0.0699	0.085	0.24	0.206	0.223	0.286
[2]	0.0639	0.067	0.0751	0.0882	0.0915	0.0939	0.0919
[3]	0.0575	0.0652	0.073	0.378	0.23	0.282	0.309
[4]	0.0606	0.0621	0.161	0.621	0.521	0.616	0.638

CN[C@@H]1C[C@H]2O[C@@](C)([C@@H]1OC)n1c3ccccc3c3c4c(c5c6ccccc6n2c5c31)C(=O)NC4 [Staurosporine]
maximum observed lethal fraction
Conditions	0.01 µM	0.0316 µM	0.1 µM	0.316 µM	1 µM	3.16 µM	10 µM
[1]	0.476	0.77	0.93	0.878	0.737	0.781	0.864
[2]	0.104	0.113	0.125	0.121	0.125	0.136	0.254
[3]	0.437	0.593	0.936	0.877	0.736	0.725	0.894
[4]	0.508	0.709	0.903	0.819	0.71	0.642	0.811

NC1(C(=O)N[C@@H](CCO)c2ccc(Cl)cc2)CCN(c2nc[nH]c3nccc2-3)CC1 [Capivasertib]
maximum observed lethal fraction
Conditions	0.0316 µM	0.1 µM	0.316 µM	1 µM	3.16 µM	10 µM	31.6 µM
[1]	0.0937	0.0911	0.0962	0.0997	0.111	0.132	0.22
[2]	0.0665	0.0661	0.0653	0.0697	0.074	0.078	0.0858
[3]	0.0788	0.0816	0.0788	0.0844	0.0929	0.108	0.236
[4]	0.0687	0.066	0.0671	0.0702	0.0868	0.109	0.201

CN(C)C/C=C/C(=O)Nc1ccc(C(=O)N2CCC[C@@H](Nc3ncc(Cl)c(-c4c[nH]c5ccccc45)n3)C2)cc1 [THZ531]
maximum observed lethal fraction
Conditions	0.01 µM	0.0316 µM	0.1 µM	0.316 µM	1 µM	3.16 µM	10 µM
[1]	0.0612	0.0612	0.0684	0.17	0.346	0.314	0.836
[2]	0.061	0.0622	0.0635	0.0888	0.105	0.0957	0.188
[3]	0.0636	0.0649	0.0776	0.465	0.359	0.489	0.903
[4]	0.049	0.0521	0.0575	0.271	0.325	0.46	0.923

Nc1ccc(-c2ccc3ncc4ccc(=O)n(-c5cccc(C(F)(F)F)c5)c4c3c2)cn1 [Torin2]
maximum observed lethal fraction
Conditions	0.0316 µM	0.1 µM	0.316 µM	1 µM	3.16 µM	10 µM	31.6 µM
[1]	0.0906	0.107	0.196	0.276	0.363	0.436	0.421
[2]	0.0705	0.0756	0.0765	0.0833	0.0776	0.0881	0.272
[3]	0.104	0.181	0.249	0.362	0.467	0.629	0.443
[4]	0.0812	0.0904	0.197	0.299	0.435	0.589	0.396

COC(=O)C[C@](O)(CCCC(C)(C)O)C(=O)O[C@@H]1C(OC)=C[C@]23CCCN2CCc2cc4c(cc2[C@H]13)OCO4 [Homoharringtonine]
maximum observed lethal fraction
Conditions	0.01 µM	0.0316 µM	0.1 µM	0.316 µM	1 µM	3.16 µM	10 µM
[1]	0.0765	0.165	0.0974	0.109	0.186	0.184	0.197
[2]	0.0663	0.099	0.0992	0.106	0.112	0.102	0.106
[3]	0.0701	0.0909	0.0937	0.102	0.0962	0.115	0.21
[4]	0.0607	0.0942	0.296	0.395	0.578	0.692	0.722

Nc1ncnc2c1ncn2[C@@H]1O[C@H](CO)C[C@H]1O [Cordycepin]
maximum observed lethal fraction
Conditions	0.1 µM	0.316 µM	1 µM	3.16 µM	10 µM	31.6 µM	100 µM
[1]	0.068	0.0684	0.0659	0.0646	0.0665	0.0847	0.517
[2]	0.0507	0.0537	0.0531	0.0551	0.0542	0.0698	0.072
[3]	0.0657	0.0642	0.064	0.068	0.0693	0.0825	0.616
[4]	0.0524	0.0543	0.0522	0.0545	0.054	0.0774	0.451

O=C(NOC[C@H](O)CO)c1ccc(F)c(F)c1Nc1ccc(I)cc1F [Mirdametinib]
maximum observed lethal fraction
Conditions	0.0316 µM	0.1 µM	0.316 µM	1 µM	3.16 µM	10 µM	31.6 µM
[1]	0.0994	0.11	0.102	0.121	0.187	0.229	0.376
[2]	0.0734	0.0716	0.0737	0.078	0.0794	0.0785	0.0843
[3]	0.104	0.11	0.123	0.349	0.546	0.58	0.806
[4]	0.0749	0.077	0.0842	0.244	0.353	0.435	0.554

C/C=C(/C)C(=O)O[C@H]1C(C)=C2[C@H]([C@@H]1OC(=O)CCCCCCC)[C@@](C)(OC(C)=O)C[C@H](OC(=O)CCC)[C@@]1(O)[C@H]2OC(=O)[C@@]1(C)O [Thapsigargin]
maximum observed lethal fraction
Conditions	0.0316 µM	0.1 µM	0.316 µM	1 µM	3.16 µM	10 µM	31.6 µM
[1]	0.228	0.265	0.324	0.296	0.48	0.831	0.892
[2]	0.0914	0.192	0.171	0.266	0.163	0.811	0.884
[3]	0.631	0.675	0.688	0.71	0.721	0.779	0.892
[4]	0.405	0.476	0.473	0.602	0.585	0.763	0.862
